Assay results as given in ChEMBL document CHEMBL5724803, “Viability screening in matched tumor and normal assay results for EUbOPEN Chemogenomics Library” (2024).

The molecules below were run on Colon organoid.
Type: functional, Homo sapiens

Row | Structure (SMILES) | Cell Viability Ratio
1 | Cc1c(NC(=O)c2ccc(C(C)(C)C)cc2)cccc1-c1cn(C)c(=O)c(Nc2ccc(C(=O)N3CCOCC3)cc2)n1 | 0.9821
2 | CCOC(=O)c1c(/C(C#N)=C\N)c2ccc(Cl)c(Cl)c2n1C | 1.055
3 | Cl.Cl.Cl.c1ccc(N2CCN(Cc3nc4ccccc4[nH]3)CC2)nc1 | 0.9546
4 | O=C(Nc1cccnn1)N1CCC(=Cc2cccc(Oc3ccc(C(F)(F)F)cn3)c2)CC1 | 0.957
5 | COc1cc(Nc2nccc(-c3cnn4nc(OC)ccc34)n2)cc(C(F)(F)F)c1 | 1.735
6 | Cc1ccc(NC(=O)Nc2cc(C(F)(F)F)ccc2F)cc1Nc1ccc2c(c1)NC(=O)/C2=C\c1ccc[nH]1 | 0.7659
7 | CCCCNc1ncc(-c2ccc(CN3CCOCC3)cn2)c(N[C@H]2CC[C@H](O)CC2)n1 | 1.102
8 | COc1cc(-c2cn([C@H]3CCc4c(F)cccc4N(CC(F)(F)F)C3=O)nn2)ccc1-n1cnc(C)c1 | 1.087
9 | Clc1cccc(-c2nnnn2Cc2cccnc2)c1Cl | 0.9298
10 | Cc1nc(N2CC[C@H](O)C2)ncc1-c1cc(C(F)(F)F)cc2[nH]ncc12 | 1.041
11 | CCOc1cn(-c2ccc(F)cc2C)nc1C(=O)Nc1ccc(Oc2ccnc3cc(OC)c(OC)cc23)c(F)c1 | 0.8903
12 | Cc1c(C(=O)Nc2ccc(Oc3ccnc4[nH]cc(-c5ccccc5)c34)c(F)c2)c(=O)n(-c2ccc(F)cc2)n1C | 0.9213
13 | CCNC(=O)c1cc2c(N3CCOC[C@@H]3C)ccnc2n1C | 1.086
14 | CCNC(=O)c1cc2c(N3CCOC[C@@H]3C)ccnc2[nH]1 | 0.9047
15 | COc1cc(Nc2ccnc3ccc(Br)cc23)cc(OC)c1OC | 1.477
16 | CCN(CC)S(=O)(=O)Nc1cccc(-c2ccc3c(NC(=O)C4CC4)n[nH]c3c2)c1 | 1.062
17 | CN(C)C(=O)Cn1cc(-c2ccc(-c3cncc4ccccc34)cc2)cn1 | 0.9698
18 | CC(C)C(=O)Nc1n[nH]c2cc(-c3cccc(NS(=O)(=O)C4CC4)c3)ccc12 | 1.005
19 | COc1cc(N(C)c2ccnc3ccc(C(F)(F)F)cc23)cc(OC)c1OC | 0.896
20 | CN1CCN(Cc2cc(NC(=O)c3ccc4c(c3)CN(c3ccccc3)CC4)cc(C(F)(F)F)c2)CC1 | 1.189
21 | Cc1cn(-c2cc(NC(=O)c3ccc4c(c3)CN(c3cncnc3)C[C@@H]4C)cc(C(F)(F)F)c2)cn1 | 1.531
22 | CN(C)C(=O)/C(C#N)=C/c1ccc(-c2nc3cnc4[nH]ccc4c3n2C2CCCCC2)o1 | 0.9378
23 | Cl.Cl.NC1(c2ccc(-c3nc4ccn5c(=O)[nH]nc5c4cc3-c3ccccc3)cc2)CCC1 | 1.463
24 | Cn1cc(-c2ccc3occ(-c4ccccc4-c4ccccc4)c3n2)cn1 | 0.9405

Row | Structure (SMILES) | Cell Viability Ratio
25 | Cc1cccc(-c2cnc3occ(-c4ccc(C(=O)O)c(C5CCCC5)c4)c3c2)c1 | 0.9583
26 | COc1cc(-c2cn([C@H]3CCc4ccccc4N(CC(F)(F)F)C3=O)nn2)ccc1-n1ccc(C)n1 | 0.9931
27 | C[C@@H](c1cccc(CN)c1)n1cc(Cl)cc(C(N)=O)c1=N.Cl | 1.078
28 | Cn1cc(-c2ccc3occ(-c4cccc(-c5ccncc5)c4)c3n2)cn1 | 0.9731
29 | CCCCN(CCCC)C(=O)CN1C[C@H](c2cc(OC)c3c(c2)OCO3)[C@@H](C(=O)O)[C@@H]1CC(C)(C)CCC.Cc1ccc(S(=O)(=O)O)cc1 | 0.9627
30 | O=C(NCCCN1CCOC1=O)c1cnc(NCc2cc(Br)ccc2Br)nc1NC1CCCC1 | 0.9691
31 | CCN(Cc1ccc(Cl)cc1)c1ncc(C(=O)NCCCN2CCCC2=O)c(NC2CCCC2)n1 | 1.023
32 | O=C(NCc1ccccc1)c1ccc(S(=O)(=O)NCc2ccccc2)cc1 | 1.216
33 | O=C(Nc1cccnn1)N1CC(C/C=C/c2cncc(Oc3ccc(C(F)(F)F)cn3)n2)C1 | 0.9954
34 | O=C(O)c1ccc(-c2coc3ncc(-c4ccccc4)cc23)cc1Cl | 0.9757
35 | CCCCN(Cc1ccccc1)C(=O)c1ccc(S(=O)(=O)Nc2ccccc2)cc1 | 1.3021
36 | CCCCN(CCCC)C(=O)CN1C[C@@H](c2cc(OC)c3c(c2)OCO3)[C@H](C(=O)O)[C@H]1CC(C)(C)CCC.Cl | 0.8768
37 | CN(C)C(=O)/C(C#N)=C/c1ccc(-c2nc3cnc4c(ccn4C)c3n2C2CCCCC2)o1 | 0.859
38 | c1ccc2oc(-c3csc(C4CCN(Cc5nc6ncccc6[nH]5)CC4)n3)cc2c1 | 0.6127
39 | COc1cc(Nc2nc(C)cc(-c3cnn4nc(OC)ccc34)n2)cc(C(F)(F)F)c1 | 0.9824
40 | CN(C)C(=O)Cn1cc(-c2ccc(-c3nnc4ccccn34)cc2)cn1 | 1.225
41 | CN(C)C(=O)N1CC[C@H](NC2=Nc3cc(F)ccc3N(CC(F)F)c3ccc(Cl)cc32)C1 | 0.9552
42 | CN(C)[C@@H]1CCN(c2cc(-c3ccccc3)nc3ccnn23)C1 [(R)-ZINC-3573] | 0.9989
43 | CN(C)[C@H]1CCN(c2cc(-c3ccccc3)nc3ccnn23)C1 [(S)-ZINC-3573] | 1.093
44 | Cn1cncc1[C@@](O)(COc1ccc(C#N)cc1-c1ccc(OC(F)(F)F)cc1)c1ccc(C#N)cc1 [A-108] | 0.984
45 | CCC(=N\O)/C(C)=C/c1ccc(F)c(C)c1 [A-226] | 1.032
46 | CNC(=O)Nc1ccc2c(c1)CC[C@@]21OC(=O)N(CC(=O)N(Cc2ccc(F)cc2)[C@@H](C)C(F)(F)F)C1=O [A-485] | 0.9163
47 | CNC(=O)Nc1ccc2c(c1)[C@@]1(CC2)OC(=O)N(CC(=O)N(Cc2ccc(F)cc2)[C@@H](C)C(F)(F)F)C1=O [A-486] | 0.9599
48 | CCCCN(CCCC)C(=O)CN1C[C@@H](c2cc(OC)c3c(c2)OCO3)[C@H](C(=O)O)[C@H]1CC(C)(C)CCC [A-545] | 1.095

Row | Structure (SMILES) | Cell Viability Ratio
49 | CCCOc1ccc([C@H]2[C@H](C(=O)O)[C@@H](c3ccc4c(c3)OCO4)CN2CC(=O)Nc2c(CC)cccc2CC)cc1 [A-192621] | 1.0774
50 | O=C(NS(=O)(=O)c1ccc(NCC2CCOCC2)c([N+](=O)[O-])c1)c1ccc(N2CCN(Cc3ccc(C(F)(F)F)cc3-c3ccc(Cl)cc3)CC2)cc1Oc1cnc2[nH]ccc2c1 [A-1210227] | 0.9477
51 | CO[C@H]1CC[C@H](CNc2ccc(S(=O)(=O)NC(=O)c3ccc(N4CCN(CC5=C(c6ccc(Cl)cc6)CC(C)(C)CC5)CC4)cc3Oc3cnc4[nH]ccc4c3)cc2[N+](=O)[O-])CC1 [A-1211212] | 0.9488
52 | COc1ccc2c(c1)O[C@H](c1ccc(OC)c(OC)c1)C[C@@H]2NC(=O)C1(c2ccc3c(c2)OC(F)(F)O3)CC1 [A-1596584] | 0.985
53 | COc1ccc2c(c1)O[C@@H](c1ccc(OC)c(OC)c1)C[C@H]2NC(=O)C1(c2ccc3c(c2)OC(F)(F)O3)CC1 [A-1596586] | 1.062
54 | CCCOc1ccc([C@@H]2[C@@H](C(=O)O)[C@H](c3ccc4c(c3)OCO4)CN2CC(=O)Nc2c(CC)cccc2CC)cc1 [A-1806262] | 1.041
55 | Cc1cnc(-c2cc(Cl)ccc2F)cc1-n1c(=O)n(CC(N)=O)c2ccccc21 [Al11] | 1.079
56 | Cn1c(-c2csc(C3CCN(CC4=NC5N=CC=CC5N4)CC3)n2)nc2ccccc21 (stereo not given) [BAY-070] | 0.9524
57 | NS(=O)(=O)c1cc(NC(=O)C2(c3ccccc3Cl)CC2)ccc1Oc1cccc(Cl)c1 [BAY-207] | 0.9336
58 | Cc1cc(NC(=O)c2cccc(S(F)(F)(F)(F)F)c2)cc(-n2ccn3nc(-c4cccnc4)cc23)c1 [BAY-309] | 1.076
59 | O=C(N1CCS(=O)(=O)CC1)N1C[C@H](c2ccc(OC(F)(F)F)cc2)C[C@H](c2nc(C3CC3)no2)C1 [BAY-386] | 0.9974
60 | O[C@]1(C(F)(F)F)CCCC[C@H]1Nc1ccc(F)cc1 [BAY-390] | 0.968
61 | Cc1c(N2CCNCC2)nc2ccc(Br)cc2c1C(=O)NC[C@H](CCC(=O)O)c1ccccc1Cl [BAY-403] | 0.887
62 | CN(C)c1ncnc(-c2ccc3nc(Nc4cc(CN5CCN(C(=O)CC(F)(F)F)CC5)ccn4)[nH]c3c2)c1Cl [BAY-440] | 0.922
63 | Cc1noc([C@H]2C[C@@H](c3ccc(C(F)(F)F)cc3)CN(C(=O)N3CCS(=O)(=O)C3)C2)n1 [BAY-448] | 0.9504
64 | CC1=C(C#N)C(c2ccc3[nH]nc(C)c3c2)C(C#N)=C(C)N1 [BAY-474] | 0.9495
65 | Cc1c(NC(=O)c2cc(C(N)=O)nc3cc(F)ccc23)c(C(F)(F)F)nn1Cc1ccc(C(C)(C)C)cc1 [BAY-588] | 1.099
66 | O=C(O)[C@@H]1[C@@H](Cn2nnc3ccccc3c2=O)CC[C@H]1C(=O)c1ccc(OCCC2CCOCC2)cc1 [BAY-694] | 1.051
67 | O=C(NCc1ncc(C(F)(F)F)cc1Cl)c1ccc2c(c1)C1(CCS(=O)(=O)CC1)[C@H](C1CC1)N2S(=O)(=O)c1ccc(F)cc1 [BAY-784] | 0.9106
68 | O=C(NCc1ncc(C(F)(F)F)cc1Cl)c1ccc2c(c1)C1(CCS(=O)(=O)CC1)[C@@H](C1CC1)N2S(=O)(=O)c1ccc(F)cc1 [BAY-786] | 1.0741
69 | Cc1c(NC(=O)c2cc(C(N)=O)nc3cc(F)ccc23)c(C(F)(F)F)nn1Cc1ccc(C#N)cc1 [BAY-876] | 1.117
70 | CN1CCN(c2cnc3c(C4CCN(C(=O)c5ccc(OC(F)(F)F)cc5N)CC4)ncnc3c2)CC1 [BAY-885] | 0.9479
